Experimental data: paper PMC6208284 (Phytotherapy Research, 2018)

Tests used:
[1] = set-up: method as in Rappoport & Frankel, 1967; settings: ref Rappoport & Frankel, 1967; cited from earlier work
[2] = system: Leishmania tarentolae promastigotes (LtP); assay: Superoxide radical detection in LtP by CMH/ESR; format: cell-based; settings: 5 μM, positive control, with DFO and DTPA
Method: Detection of superoxide radicals was performed using CMH as reaction partner and measuring the formed stable nitroxyl radicals by electron spin resonance (ESR) spectroscopy. Measurements were performed in PBS (136 mM NaCl, 1.15 mM KH2PO4, 14 mM Na2HPO4, and 2.7 mM KCl, pH 7.4) containing 15 mM glucose, 400 μM CMH, and 100 μM DFO (desferrioxamine mesylate) and 25 μM DTPA. Usually, these assays are performed in the presence of iron chelators (DFO and DTPA) to prevent CMH interaction with free Fe^3+ leading to CM^● unrelated to superoxide radicals. Before the measurements, LtP suspensions were washed twice with PBS to remove the medium. Typical experiments contained 5 × 10^8 LtP cells/ml. Stock solutions of EO compounds dissolved in DMSO were added. The influence of Asc (6–700 μM) on the CMH oxidation rate by LtP was assessed immediately and after prolonged incubation time (1 hr between Asc and CMH addition). The influence of iron‐dependent Asc activation in LtP on CMH oxidation was studied in the absence of iron chelators DFO and DTPA. Prior to the ESR measurement, 400 μM CMH was added. Afterwards, 17 μl of suspension was aspirated in gas‐permeable Teflon tubes (ID 0.7 mm). This capillary tube was placed in the resonator of the ESR instrument (Bruker EMX, split ring MD5, Germany), and 10 sequential measurements were performed. The following instrument settings were used: microwave frequency 9.682 GHz, modulation frequency 100 kHz, modulation amplitude 1 G, time constant 0.082 s, center field 3,446 G, scan rate 71 G/min, sweep width 100 G, scan time 84 s, and attenuation CMH: 7.96 × 10^3. From the ESR spectra, the middle peak intensity was retrieved, and concentrations of oxidized CMH were obtained by comparison with a standard curve prepared from 3‐carboxy‐proxyl solutions with defined concentrations. Four replicate measurements were performed for each condition.

[3] = system: Leishmania tarentolae promastigotes (LtP); assay: Immediate mitochondrial uncoupling in LtP, OxoPlates with oligomycin; format: cell-based; settings: positive control uncoupler, 0.7–5 μM, LtP + 5 μM Oligo
Method: U‐shaped 96‐well OxoPlates (OP96U PreSens, Germany) with integrated fluorescence oxygen sensors were used for parallel LtP experiments. Oxygen concentrations were measured using a PerkinElmer Enspire fluorescence plate reader using excitation wavelength 540 nm and two emission wavelengths (reference dye 590 nm, IRef, and O2‐sensing dye 650 nm, IInd). The oxygen concentration (μM O2) was calculated according to manufacturer's instructions as described previously (Monzote et al., 2016). Measurements with LtP were performed in air‐saturated BHI medium. […] Immediately before the measurement, 150 μl of well‐aerated cell suspensions (13 × 10^7 LtP per ml) was added to the respective wells. Finally, on the top of each well, 50 μl of paraffin oil was layered. Two minutes after mixing, the fluorescence measurements at 27 °C were started, and eight measurements at 5‐min intervals were performed. From the linear part of the O2 decay, the slopes were calculated and corrected for the medium drift for further statistic evaluation. All measurements were performed at least in triplicate. For bioenergetic characterization, the ATP synthase inhibitor Oligo (5 μM) and as positive control CCCP (0.7–5 μM) were used. Respiratory control ratio (RCR) was calculated from respiration rate in the presence of Oligo and compounds/uncoupler divided by the rate in the presence of Oligo.

Q: Which pKa value [1] does the source give for `O=[N+]([O-])c1ccc(O)c([N+](=O)[O-])c1` [2,4‐dinitrophenol, reference compound] here?
A: The pKa value was “around 4”.

Q: For `CCCCCC[C@H]1C(=O)O[C@H](C)[C@H](NC(=O)c2cccc(NC=O)c2O)C(=O)O[C@@H](C)[C@@H]1OC(=O)CC(C)C` [AA, antimycin A, reference compound], which “CM● formation (superoxide radicals) in LtP” value [2] is on record?
A: The value was “showed an increase”.

Q: Which “Oligo‐inhibited respiration in LtP” value [3] does the source give for `N#CC(C#N)=NNc1cccc(Cl)c1` [CCCP, carbonyl cyanide‐m‐chlorophenylhydrazone, reference compound] here?
A: The value was “clear increase”.
